Measured values published in patent US7772230B2, “Chroman compound, processes for its preparation, and its pharmaceutical use” (China Pharmaceutical University, priority 2006, dated 2010).
pIC50: −log10 of the molar value.

Assays:
[1] = biological target: T1, rapidly delayed rectifier potassium channel current (IKr) (Cavia porcellus, UniProt O08703); assay: whole cell patch clamp on isolated Guinea pig myocardial cells, IKr; format: cell-based; settings: Guinea pig ventricular myocytes, current recorded 10 min after administration, 25-30° C.
T1 construct: the Guinea pig myocardial cells are separated with enzymolysis; endogenous in cells; host or cells: freshly isolated guinea pig ventricular myocytes
T1 sequence (O08703 1-1294): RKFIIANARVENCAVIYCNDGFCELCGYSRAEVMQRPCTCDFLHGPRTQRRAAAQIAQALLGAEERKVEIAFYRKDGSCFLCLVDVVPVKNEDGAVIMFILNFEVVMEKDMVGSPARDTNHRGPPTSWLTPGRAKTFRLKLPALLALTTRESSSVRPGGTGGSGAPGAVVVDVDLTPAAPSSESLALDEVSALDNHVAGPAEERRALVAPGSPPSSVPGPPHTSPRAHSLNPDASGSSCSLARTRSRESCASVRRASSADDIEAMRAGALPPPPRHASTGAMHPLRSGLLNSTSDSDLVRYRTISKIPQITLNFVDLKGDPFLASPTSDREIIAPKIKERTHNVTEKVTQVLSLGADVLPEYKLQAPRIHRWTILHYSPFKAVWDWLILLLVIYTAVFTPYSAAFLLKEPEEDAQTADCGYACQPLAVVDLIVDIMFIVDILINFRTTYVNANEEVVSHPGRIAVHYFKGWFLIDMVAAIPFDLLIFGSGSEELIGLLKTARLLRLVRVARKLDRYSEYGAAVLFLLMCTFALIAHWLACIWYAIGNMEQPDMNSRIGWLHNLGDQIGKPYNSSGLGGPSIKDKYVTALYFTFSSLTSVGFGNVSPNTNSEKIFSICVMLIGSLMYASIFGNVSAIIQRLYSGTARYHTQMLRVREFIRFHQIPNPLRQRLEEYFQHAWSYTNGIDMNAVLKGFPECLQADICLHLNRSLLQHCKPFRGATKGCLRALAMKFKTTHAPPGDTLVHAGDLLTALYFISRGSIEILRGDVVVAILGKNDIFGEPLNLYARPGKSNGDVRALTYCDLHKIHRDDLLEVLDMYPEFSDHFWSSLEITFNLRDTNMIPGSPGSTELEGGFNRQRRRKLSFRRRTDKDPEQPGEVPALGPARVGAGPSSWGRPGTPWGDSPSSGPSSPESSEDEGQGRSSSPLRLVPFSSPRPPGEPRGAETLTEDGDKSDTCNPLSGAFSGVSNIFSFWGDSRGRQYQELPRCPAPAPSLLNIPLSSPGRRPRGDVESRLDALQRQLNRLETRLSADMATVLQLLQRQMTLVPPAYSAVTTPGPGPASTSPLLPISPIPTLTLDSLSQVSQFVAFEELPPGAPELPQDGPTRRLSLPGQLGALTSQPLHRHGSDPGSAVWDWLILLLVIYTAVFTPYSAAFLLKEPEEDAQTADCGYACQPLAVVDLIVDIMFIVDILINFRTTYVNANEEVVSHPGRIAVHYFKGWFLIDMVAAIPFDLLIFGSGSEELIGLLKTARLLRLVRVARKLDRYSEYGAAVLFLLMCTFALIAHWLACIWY
Procedure: (§1) Experimental title: using vitro pachynsis myocardial cells of Guinea pig, the activity is determined by the whole cell membrane Patch clamp technology.
(§2) experimental mechanism: the Guinea pig myocardial cells are separated with enzymolysis, and the rapid activation component and the slowly activation component of the delayed commutating current in the cardiac muscle cells are recorded by whole cell membrane Patch clamp. Each compound is added to the perfuse liquid for measuring current after dissolved at least 10 min. The collected data is analyzed in pulse-fit, the IC50 value for IKr and IKs of each compound is calculated.
(§3) animals: Guinea pigs, male, weight 300-400 g.
(§4) solution: calcium free Tyrode's solution
(§5) pole inner solution (mmol/L): KCl 140, MgCl2 1.0, K2-ATP 4.0, EGTA 10, HEPES 5.0, pH=7.2
(§6) Experimental apparatus: Patch clamp magnifier (EPC-10, Germany), inverted microscope (TE-2000U, Nikon, Japan), microelectrode puller (PIP5, Germany), micro-manipulator (PCS-5000, Burleigh, USA).
(§7) Then, the hearts are taken off, their ventricle are cut to smash and incubated in fresh enzyme solution at 37° C., the solution is gently stirred for 5-10 min, pouring off the supernatant fluid, diluted with Tyrode's solution containing CaCl2 1 mmol/L, that is for the first cell stored liquor; with the same operation to obtain the second and the third cell storages. […] The cells are laid for 2 h before use.
(§8) the cell liquor is put into the cell pool, after the cells adhering to the wall, they are perfused with outer liquor of the cells at the rate of 2 ml/min, cells that having calcium resistance and clear transverse striations are to be selected, the poles are moved to the cell surface by tridimensional manipulator. The high resistance block are formed between the pole top and the cell surface by under pressure, and more over using reduced pressure to broking cell membrane, the pole inner liquor can be connected to the cell inner liquor so as to form the whole cell state. After the compensation to the capacitance and series impedance compensation the voltage tongs are recorded. The signal is led by Ag/AgCl pole and magnified by the Patch clamp magnifier, the computer dispenses presetting stimulate pulse by procedure and add to cells, and the electrical signal generated from cells is translated by transducer, and stored in computer. All of the stimulate signal control, electric current, data sampling and analyses are carried out by pulse V8.60. Azimilide is used as positive drugs in the research. Each test compound is dissolved in anhydrous ethanol, diluted to the same concentration by water, and added to outer cell liquor, the top concentration of ethanol is 0.1%.
(§9) Stimulate parameter: the record of IKr and IKS: the back value of the either current is recorded. Using extra-cellular fluid containing 0.1 mmol/L CdCl2 for perfusion, sustaining the voltage at −50 mV, depolarized to 60 mV, keeping for 500 ms, and sustaining the voltage at −50 mV, keeping for 1000 ms, recording IKr; and then binding the voltage at −50 mV for 1000 ms, recording IKs.

[2] = biological target: T2, slowly delayed rectifier potassium channel current (IKs) (Cavia porcellus, UniProt O70344); assay: whole cell patch clamp on isolated Guinea pig myocardial cells, IKs; format: cell-based; settings: Guinea pig ventricular myocytes, current recorded 10 min after administration, 25-30° C.
T2 construct: the Guinea pig myocardial cells are separated with enzymolysis; endogenous in cells; host or cells: freshly isolated guinea pig ventricular myocytes
T2 sequence (O70344 1-671): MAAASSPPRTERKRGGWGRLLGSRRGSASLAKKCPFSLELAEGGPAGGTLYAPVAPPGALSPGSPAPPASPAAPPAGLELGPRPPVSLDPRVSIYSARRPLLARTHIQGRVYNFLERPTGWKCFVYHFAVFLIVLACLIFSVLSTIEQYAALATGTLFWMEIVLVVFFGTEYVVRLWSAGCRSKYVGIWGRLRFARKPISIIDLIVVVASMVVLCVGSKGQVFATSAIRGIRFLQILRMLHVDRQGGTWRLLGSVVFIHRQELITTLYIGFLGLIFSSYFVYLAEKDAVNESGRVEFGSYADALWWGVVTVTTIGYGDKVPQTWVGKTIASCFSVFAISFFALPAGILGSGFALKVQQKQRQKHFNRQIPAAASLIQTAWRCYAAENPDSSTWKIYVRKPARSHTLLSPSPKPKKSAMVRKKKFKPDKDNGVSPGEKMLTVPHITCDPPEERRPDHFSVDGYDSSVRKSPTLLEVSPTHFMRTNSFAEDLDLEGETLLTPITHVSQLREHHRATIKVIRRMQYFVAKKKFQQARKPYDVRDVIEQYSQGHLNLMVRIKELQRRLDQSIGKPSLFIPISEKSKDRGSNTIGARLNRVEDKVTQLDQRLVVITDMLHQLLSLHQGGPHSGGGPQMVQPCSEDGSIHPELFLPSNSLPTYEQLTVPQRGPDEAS
T2 sequence (P41686 1-245 partner): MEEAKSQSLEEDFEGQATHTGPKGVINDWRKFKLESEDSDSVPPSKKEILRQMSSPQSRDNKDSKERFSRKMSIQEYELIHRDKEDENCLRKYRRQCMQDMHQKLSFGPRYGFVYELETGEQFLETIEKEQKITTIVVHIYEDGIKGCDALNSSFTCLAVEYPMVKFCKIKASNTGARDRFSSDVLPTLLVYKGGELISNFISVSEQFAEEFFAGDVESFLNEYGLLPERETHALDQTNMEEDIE
Procedure: as §1, §2, §3, §4, §5, §6, §7, §8, §9

| pIC50 [2] | melting point | Compound | pIC50 [1] |
| --- | --- | --- | --- |
| 5.89 | 218 to 220 °C | CCCOc1ccc2c(c1)/C(=N/N1CC(=O)N(CCCCN3CCN(C)CC3)C1=O)CCO2.O=C(O)/C=C/C(=O)O [Ib example 3, 1-[4-(2,3-dihydro-6-propoxy-)benzopyran]imino-3-[4-(methyl-1-piperazine)butyl]-2,4-imidazole dione difumarate] | 4.93 |
| 6.19 | 208 to 210 °C | COc1ccc2c(c1)/C(=N/N1CC(=O)N(CCCCN3CCN(C)CC3)C1=O)CCO2.O=C(O)/C=C/C(=O)O [Ia example 1, 1-[4-(2,3-dihydro-6-methoxy)benzopyran]imino-3-[4-(methyl-1-piperazine)butyl]-2,4-imidazole dione difumarate] | 6.00 |

| Compound | pIC50 [2] | melting point | pIC50 [1] |
| --- | --- | --- | --- |
| CCCCOc1ccc2c(c1)/C(=N/N1CC(=O)N(CCCCN3CCN(C)CC3)C1=O)CCO2.O=C(O)/C=C/C(=O)O [Ib example 4, 1-[4-(2,3-dihydro-6-butoxy)benzopyran]imino-3-[4-(methyl-1-piperazine)butyl]-2,4-imidazole dione difumarate] | 7.66 | 208 to 210 °C | 6.74 |
